The conditions of series [1]: preclinical studies; Weiss, et al., 1993; cited from earlier work.
For series [2], the system named is C26 colon tumor. Nature of the series: C26 colon tumor model, altered dosing schedule (FIG. 6). It counts as in vivo, mice (Balb/c, male). The following applies: IV, days 12, 19, 26, free cisplatin 6 mg/kg, liposomal 6, 12/4/4 or 14/4/4 mg/kg. How it is done:
That is, liposome-entrapped cisplatin was administered with a larger loading dose followed by smaller doses at the second and third weeks.
The C26 colon tumor model was grown in Balb/c, male mice (Simonson Laboratories, Inc., Gilroy, Calif.). Tumors were harvested from donor mice for and minced finely in RPMI media with 10% fetal calf serum (FCS). Tumors were then digested with enzyme mix (10 ml 0.25% protease type IX and 0.25% collagenase type IV in Hank's balanced salt solution (HBSS) and 0.2% ml 0.02% DNase in HBSS) for 30-60 minutes at 37° C. Single cell suspension of tumor cells was washed twice in RPMI media with FCS, concentrated by centrifugation and resuspended in RPMI media with FCS for inoculation. One million tumor cells (0.1 ml) were inoculated in the left flank of 5-6 week old mice.
2. Altered Dosing Schedule. Mice were inoculated with the C26 colon tumor cells according to the above-described procedure. Treatment of the tumor-bearing mice was initiated when the majority of animals had palpable tumors mass of about 100 mm^3.
Cisplatin entrapped in liposomes, prepared as described above, was administered intravenously according to three dosing schedules to tumor-bearing mice. […] The control group (n=5) received saline on each treatment day.

For series [3], the system named is Lewis lung carcinoma. Nature of the series: Lewis lung tumor model (FIG. 7). Conditions: days 7, 14, 21, free cisplatin 6 mg/kg, liposomal 12 mg/kg. It counts as in vivo, mice (B6C3-F1, male). As for the experimental part: Mice bearing the Lewis lung carcinoma tumor model were treated with cisplatin, administered intravenously and intraperitoneally, or with liposome-entrapped cisplatin, administered similarly. […] A control group of tumor-bearing mice were treated with saline.
The Lewis lung tumor (LL/2, CRL-1642, ATCC, Rockville, Md.) model was grown in G6C3-F1, male mice (Simonson Laboratories, Inc., Gilroy, Calif.). Tumors were harvested from donor mice and processed as above for inoculation of an experiment. One million tumor cells (0.1 ml) were inoculated in the left flank of 5-6 week old, male, B6C3-F1 mice.
Treatment of the tumor-bearing animals was initiated seven days after inoculation, when the majority of animals had palpable tumor masses.
The control group (n=9) received saline on the treatment days (days 7, 14 and 21).

For series [4] the following is noted: IV, once per week for 3 weeks, mice; cited from earlier work.
For series [5] the following is noted: Freise, et al., 1982; cited from earlier work.
Series [6] relates to tumor models in laboratory animals and human tumors. Conditions: Sur 1983; Steerenberg 1987; cited from earlier work.
Series [7] concerns squamous cell cancer of the head and neck. The following applies: 80 mg/m^2, 24-hour intravenous infusion; Prestayko, 1991; cited from earlier work.

As for `N.N.O=C([O-])C1(C(=O)[O-])CCC1.[Pt+2]` [carboplatin, 1,1-cyclobutane-dicarboxylate-diammineplatinum], in series [1], the “antitumor activity relative to cisplatin” value is recorded as “equivalent or greater antitumor activity than cisplatin” and the “nephrotoxicity relative to cisplatin” value is “less nephrotoxicity”.
`N.N.[Cl][Pt][Cl]` [cisplatin, cis-diamine-dichloroplatinum (II)]: the tumor mass entry in series [2] is recorded as “continual increase in tumor mass”. Also, the “antitumor response, IV vs IP administration” value in series [3] is on record as “similar”. Further, the maximally tolerated dose in series [4] was 6 mg/kg. Besides, the “excretion via the kidneys” value in series [5] is “rapid excretion via the kidneys”. Moreover, in series [6], the antitumor effectiveness entry was “highly effective in the treatment of tumor models in laboratory animals and in human tumors”. For the same compound, the clinical response result in series [7] was “favorable response”.

Source of the values: US6126966A (Sequus Pharmaceuticals, Inc., priority 1999, dated 2000).
